# According to patent US9890152B2 (Genentech, Inc., priority 2012, dated 2018):
# pKi: −log10 of the molar value.
# Target: T1, EGFR del746-750 T790M (Homo sapiens, UniProt P00533, DEL746-750/T790M)
# T1 construct: purchased Carna Biosciences 08-528
# Experiment: EGFR del746-750 T790M biochemical assay (Caliper mobility shift)
# Conditions: 5 μM ATP, 30 min, room temperature; apparent Ki (Morrison) converted by Cheng-Prusoff, Km of ATP 2.1 μM; read-out: EGFR(T790M/d746-750) Ki
# T1 sequence (P00533 with tags, fused parts or gaps DEL746-750/T790M limits assumed): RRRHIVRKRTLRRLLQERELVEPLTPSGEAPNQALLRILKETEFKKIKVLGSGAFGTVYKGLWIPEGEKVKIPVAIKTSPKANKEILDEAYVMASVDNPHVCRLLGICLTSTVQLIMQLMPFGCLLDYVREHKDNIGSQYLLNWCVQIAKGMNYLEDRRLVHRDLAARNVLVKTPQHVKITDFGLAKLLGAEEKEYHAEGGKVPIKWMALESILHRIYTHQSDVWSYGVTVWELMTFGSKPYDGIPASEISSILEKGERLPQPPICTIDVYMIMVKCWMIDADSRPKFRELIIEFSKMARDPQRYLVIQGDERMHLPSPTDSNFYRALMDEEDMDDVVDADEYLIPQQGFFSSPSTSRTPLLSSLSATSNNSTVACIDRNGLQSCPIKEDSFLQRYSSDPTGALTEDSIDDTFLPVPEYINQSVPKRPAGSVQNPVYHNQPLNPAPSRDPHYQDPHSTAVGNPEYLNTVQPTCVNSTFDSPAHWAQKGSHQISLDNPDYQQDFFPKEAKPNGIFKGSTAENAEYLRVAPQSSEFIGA
row,Structure (SMILES),pKi
1,"C[C@@H](O)c1nc2cnc(Nc3ccnc(N4CCC(O)C(F)C4)n3)cc2n1[C@H](C)C(F)(F)F (stereo partly drawn) [Example 542, 3-Fluoro-1-{4-[2-((R)-1-hydroxyethyl)-1-((R)-2,2,2-trifluoro-1-methylethyl)-1H-imidazo[4,5-c]pyridin-6-ylamino]pyrimidin-2-yl}-piperidin-4-ol]",7.00
2,"Cc1nc2cnc(Nc3ccnc(N4CCC(S(C)(=O)=O)CC4)n3)cc2n1C(C)C [Example 545, (1-Isopropyl-2-methyl-1H-imidazo[4,5-c]pyridin-6-yl)-[2-(4-methanesulfonylpiperidin-1-yl)pyrimidin-4-yl]amine]",6.30
3,"Cc1nc2cnc(Nc3ccnc(N4CCC(OC(F)F)CC4)n3)cc2n1C(C)C [Example 549, [2-(4-Difluoromethoxypiperidin-1-yl)pyrimidin-4-yl]-(1-isopropyl-2-methyl-1H-imidazo[4,5-c]pyridin-6-yl)amine]",6.85
4,CCNc1nc2cnc(Nc3ccnc(-c4cnn(S(=O)(=O)C5CC5)c4)n3)cc2n1C(C)C [Example 556],8.41
5,"CC(C)n1c([C@@H](C)O)nc2cnc(Nc3ccnc(-c4cnn(S(=O)(=O)C5CC5)c4)n3)cc21 [Example 561, (R)-1-{6-[2-(1-Cyclopropanesulfonyl-1H-pyrazol-4-yl)pyrimidin-4-ylamino]-1-isopropyl-1H-imidazo[4,5-c]pyridin-2-yl}ethanol]",8.76
6,"CC(C)n1c([C@H](C)O)nc2cnc(Nc3ccnc(-c4cnn(S(=O)(=O)C5CC5)c4)n3)cc21 [Example 562, (S)-1-{6-[2-(1-Cyclopropanesulfonyl-1H-pyrazol-4-yl)pyrimidin-4-ylamino]-1-isopropyl-1H-imidazo[4,5-c]pyridin-2-yl}ethanol]",7.85
7,"CC(C)n1c(C(C)(C)O)nc2cnc(Nc3ccnc(-c4cnn(S(=O)(=O)C5CC5)c4)n3)cc21 [Example 563, 2-{6-[2-(1-Cyclopropanesulfonyl-1H-pyrazol-4-yl)pyrimidin-4-ylamino]-1-isopropyl-1H-imidazo[4,5-c]pyridin-2-yl} propan-2-ol]",7.95
8,"Cc1nc2cnc(Nc3ccnc(N4CCCC(F)C4)n3)cc2n1C(C)C (stereo not drawn) [Example 590, [2-(3-Fluoropiperidin-1-yl)pyrimidin-4-yl]-(1-isopropyl-2-methyl-1H-imidazo[4,5-c]pyridin-6-yl)amine]",7.03
9,"Cc1nc2cnc(Nc3ccnc(N4CCC(F)CC4)n3)cc2n1C(C)C [Example 591, [2-(4-Fluoropiperidin-1-yl)pyrimidin-4-yl]-(1-isopropyl-2-methyl-1H-imidazo[4,5-c]pyridin-6-yl)amine]",7.26
10,"Cc1nc2cnc(Nc3ccnc(N4CC[C@H](F)C4)n3)cc2n1C(C)C [Example 592, [2-((S)-3-Fluoropyrrolidin-1-yl)pyrimidin-4-yl]-(1-isopropyl-2-methyl-1H-imidazo[4,5-c]pyridin-6-yl)amine]",7.24
11,"Cc1nc2cnc(Nc3ccnc(N4CC[C@@H](F)C4)n3)cc2n1C(C)C [Example 593, [2-((R)-3-Fluoropyrrolidin-1-yl)pyrimidin-4-yl]-(1-isopropyl-2-methyl-1H-imidazo[4,5-c]pyridin-6-yl)amine]",6.93
12,"CCc1ncc(-c2nccc(Nc3cc4c(cn3)nc(C)n4C(C)C)n2)s1 [Example 595, [2-(2-Ethylthiazol-5-yl)pyrimidin-4-yl]-(1-isopropyl-2-methyl-1H-imidazo[4,5-c]pyridin-6-yl)amine]",8.02
13,"Cc1nc2cnc(Nc3ccnc(-n4ccnc4)n3)cc2n1C(C)C [Example 599, (2-Imidazol-1-ylpyrimidin-4-yl)-(1-isopropyl-2-methyl-1H-imidazo[4,5-c]pyridin-6-yl)amine]",7.56
14,Cc1nc2cnc(Nc3ccnc(N4CC[C@H](O)C[C@@H]4C)n3)cc2n1C(C)C [Example 600],7.12
15,Cc1nc2cnc(Nc3ccnc(N4CC[C@@H](O)C[C@H]4C)n3)cc2n1C(C)C [Example 601],7.30
